Reference: BindingDB's records for doi:10.1021/bi200552p (Astrazeneca Pharmaceuticals, 2011)
Where “and” joins values, the source holds several entries; their conditions need not be identical. Equal entries are not always repeated.

Molecular target: T1, Fatty-acid amide hydrolase 1 (Homo sapiens, UniProt O00519)
T1 sequence (O00519 whole entry): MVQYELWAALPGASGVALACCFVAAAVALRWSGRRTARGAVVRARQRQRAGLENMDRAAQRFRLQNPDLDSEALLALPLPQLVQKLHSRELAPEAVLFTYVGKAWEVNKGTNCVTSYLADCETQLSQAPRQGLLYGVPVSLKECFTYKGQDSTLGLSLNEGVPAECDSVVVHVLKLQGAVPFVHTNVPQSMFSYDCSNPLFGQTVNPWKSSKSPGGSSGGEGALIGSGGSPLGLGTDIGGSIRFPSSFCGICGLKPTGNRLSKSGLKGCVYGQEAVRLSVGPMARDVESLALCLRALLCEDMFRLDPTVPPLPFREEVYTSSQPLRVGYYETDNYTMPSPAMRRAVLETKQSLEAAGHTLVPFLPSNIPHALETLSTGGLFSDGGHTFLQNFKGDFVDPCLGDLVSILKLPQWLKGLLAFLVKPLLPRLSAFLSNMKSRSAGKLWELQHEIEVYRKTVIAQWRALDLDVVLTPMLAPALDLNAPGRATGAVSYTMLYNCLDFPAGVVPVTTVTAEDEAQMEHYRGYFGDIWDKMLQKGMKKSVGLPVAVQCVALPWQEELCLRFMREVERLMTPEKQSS
Experiment: Inhibition Assay
Conditions: pH 8; 22 °C
Method: the enzyme activity of recombinant human FAAH was measured according to published procedures with minor modifications by either a fluorescent assay using D-AMC or a radioactive assay using tritium-labeled anandamide (3H-anandamide)51 as substrate.

- IC50: 2 nM and 2.1 nM and 2.3 nM and 2.5 nM and 5.1 nM and 3.8 nM
Compound: COc1cccc2sc(-c3ccc(NC(=O)C4CCN(S(=O)(=O)c5cccs5)CC4)cc3)nc12 [Benzothiazole-based analogue, 1]
